Results published in patent US7531555B2, “Compositions and methods for selective inhibition of nicotine acetylcholine receptors” (University of Florida Research Foundation, Inc., priority 2003, dated 2009).

Tests used:
mice [1] = experiment: Body temperature, nicotine-induced hypothermia; assay type: in vivo; details: Saline/Nicotine (1.5 mg/kg), s.c.
Description: Animals. Male ICR mice (20-25 g) obtained from Harlan Laboratories (Indianapolis, Ind.) were used throughout the study. Animals were housed in groups of six and had free access to food and water. Adult, male Long-Evans rats (350-460 g), obtained from Harlan (Dublin, Va.), were individually housed in a temperature-controlled (20-22° C.) environment with a 12-hour light-dark cycle (lights on at 7 a.m.). Rats were maintained within the indicated weight range by restricted post-session feeding and had ad libitum water in their home cages. Rats were drug-naive at the beginning of the study. Animals were housed in an AALAC approved facility and the study was approved by the Institutional Animal Care and Use Committee of Virginia Commonwealth University. Body temperature. Rectal temperature was determined by a thermistor probe (inserted 24 mm) and digital thermometer (Yellow Springs Instrument Co., Yellow Springs, Ohio). […] The difference in rectal temperature before and after treatment was calculated for each mouse. The ambient temperature of the laboratory varied from 21-24° C. from day to day. […] Psychopharmacology (Berl), 1995, 117:67-73). Eight to twelve mice were tested in each treatment group and each animal was tested only once. Statistical analysis. Statistical analysis of all analgesic and in vivo studies was performed using either t-test or analysis of variance (ANOVA) with Tukey's test post hoc test when appropriate.

mice [2] = experiment: Locomotor activity, nicotine-induced hypomotility; assay type: in vivo; details: Saline/Nicotine (1.5 mg/kg), s.c.
Description: Animals. Male ICR mice (20-25 g) obtained from Harlan Laboratories (Indianapolis, Ind.) were used throughout the study. Animals were housed in groups of six and had free access to food and water. Adult, male Long-Evans rats (350-460 g), obtained from Harlan (Dublin, Va.), were individually housed in a temperature-controlled (20-22° C.) environment with a 12-hour light-dark cycle (lights on at 7 a.m.). Rats were maintained within the indicated weight range by restricted post-session feeding and had ad libitum water in their home cages. Rats were drug-naive at the beginning of the study. Animals were housed in an AALAC approved facility and the study was approved by the Institutional Animal Care and Use Committee of Virginia Commonwealth University.
Locomotor activity. Mice were placed into individual Omnitech photocell activity cages (28×16.5 cm) immediately after s.c. administration of either 0.9% saline or nicotine (6.2 μmol/kg or 1 mg/kg) and were allowed to acclimate for 10 minutes. Interruptions of the photocell beams (two banks of eight cells each) were then recorded for the next 10 minutes. Data were expressed as percentage of depression where % depression=[1−(counts from nicotine-treated animals/counts from vehicle-treated animals)]×100. Mice were pretreated s.c. with either saline or TMPH 10 minutes before nicotine.
Eight to twelve mice were tested in each treatment group and each animal was tested only once.
Statistical analysis. Statistical analysis of all analgesic and in vivo studies was performed using either t-test or analysis of variance (ANOVA) with Tukey's test post hoc test when appropriate. All differences were considered significant at p<0.05. AD50 values with 95% CL for behavioral data were calculated by unweighted least-squares linear regression as described by Tallarida and Murray (Tallarida and Murray Manual of Pharmacological Calculations with Computer Programs. 1987, Springer-Verlag, New York).

Rat α4β2 = biological target: T1, Rat α4β2 (Rattus norvegicus, UniProt P09483+P12390); details: mecamylamine, comparison value in discussion; read-out: IC50 (peak), expressed α4β2 subtypes; cited from earlier work
T1 construct: expressed in transfected cells; host or cells: Xenopus laevis oocytes injected with subunit cRNAs; clones from Dr. Jim Boulter (UCLA)
T1 sequence (P09483 31-630): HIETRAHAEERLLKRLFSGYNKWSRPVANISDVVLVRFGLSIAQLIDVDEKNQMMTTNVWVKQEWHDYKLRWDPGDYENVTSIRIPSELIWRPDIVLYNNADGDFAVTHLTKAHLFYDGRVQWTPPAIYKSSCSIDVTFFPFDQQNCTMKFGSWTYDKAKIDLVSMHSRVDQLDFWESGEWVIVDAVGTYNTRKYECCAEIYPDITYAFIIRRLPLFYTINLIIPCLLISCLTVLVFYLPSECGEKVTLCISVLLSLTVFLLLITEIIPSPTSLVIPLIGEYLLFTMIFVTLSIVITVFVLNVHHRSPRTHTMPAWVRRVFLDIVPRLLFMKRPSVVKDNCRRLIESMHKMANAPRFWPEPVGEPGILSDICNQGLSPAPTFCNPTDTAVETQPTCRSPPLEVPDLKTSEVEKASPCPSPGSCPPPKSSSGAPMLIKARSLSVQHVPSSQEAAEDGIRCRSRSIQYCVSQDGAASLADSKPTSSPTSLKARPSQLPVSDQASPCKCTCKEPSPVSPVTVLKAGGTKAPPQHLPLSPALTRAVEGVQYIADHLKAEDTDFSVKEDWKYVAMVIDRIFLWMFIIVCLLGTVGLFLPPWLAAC
T1 sequence (P12390 25-500): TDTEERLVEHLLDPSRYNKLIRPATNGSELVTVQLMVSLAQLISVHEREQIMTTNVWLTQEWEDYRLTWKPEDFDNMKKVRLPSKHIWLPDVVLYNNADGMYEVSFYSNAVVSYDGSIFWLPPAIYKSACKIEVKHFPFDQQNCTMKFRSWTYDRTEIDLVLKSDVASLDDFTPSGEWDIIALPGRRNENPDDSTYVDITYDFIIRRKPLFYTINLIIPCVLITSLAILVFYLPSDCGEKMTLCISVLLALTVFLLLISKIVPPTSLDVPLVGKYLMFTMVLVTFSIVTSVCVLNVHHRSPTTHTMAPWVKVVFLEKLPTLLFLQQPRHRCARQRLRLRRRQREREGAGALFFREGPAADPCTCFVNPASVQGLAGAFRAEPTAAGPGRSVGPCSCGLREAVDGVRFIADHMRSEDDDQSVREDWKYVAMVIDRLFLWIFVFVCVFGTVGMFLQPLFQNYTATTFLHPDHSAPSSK

Structure (SMILES) | Body temperature Δ° C. (Mean ± SEM) (mice [1]) | Locomotor Activity # Interrupts (Mean ± SEM) (mice [2]) | IC50 (Rat α4β2)
CN1CCCC1c1cccnc1 (single isomer, unassigned; (-)) [Nicotine, (−)-Nicotine] | −5.0 ± 0.3 °C | 358 ± 92 # Interrupts | –
CNC1(C)C2CCC(C2)C1(C)C (stereo not drawn) [Mecamylamine] | – | – | 2500 nM
